{
  "source": "BindingDB's records for doi:10.1016/j.bmcl.2019.126637",
  "about": "(Eli Lilly, 2019)",
  "biological_target": "Cyclin-Y/Cyclin-dependent kinase 16 (Homo sapiens, UniProt Q00536+Q8ND76)",
  "sequence (Q00536 whole entry)": "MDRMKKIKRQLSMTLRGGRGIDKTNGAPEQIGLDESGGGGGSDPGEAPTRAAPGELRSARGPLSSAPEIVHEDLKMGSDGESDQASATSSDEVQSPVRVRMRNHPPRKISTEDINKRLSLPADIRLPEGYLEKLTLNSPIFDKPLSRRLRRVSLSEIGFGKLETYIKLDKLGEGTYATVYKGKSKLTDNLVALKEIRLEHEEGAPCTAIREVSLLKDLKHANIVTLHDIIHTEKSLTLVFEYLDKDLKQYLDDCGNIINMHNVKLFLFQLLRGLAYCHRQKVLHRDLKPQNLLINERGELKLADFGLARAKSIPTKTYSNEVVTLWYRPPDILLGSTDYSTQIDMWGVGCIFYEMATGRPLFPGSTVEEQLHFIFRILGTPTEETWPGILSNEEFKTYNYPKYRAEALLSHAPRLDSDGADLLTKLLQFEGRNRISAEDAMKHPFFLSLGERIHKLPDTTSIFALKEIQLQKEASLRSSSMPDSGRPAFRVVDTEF",
  "sequence (Q8ND76 whole entry)": "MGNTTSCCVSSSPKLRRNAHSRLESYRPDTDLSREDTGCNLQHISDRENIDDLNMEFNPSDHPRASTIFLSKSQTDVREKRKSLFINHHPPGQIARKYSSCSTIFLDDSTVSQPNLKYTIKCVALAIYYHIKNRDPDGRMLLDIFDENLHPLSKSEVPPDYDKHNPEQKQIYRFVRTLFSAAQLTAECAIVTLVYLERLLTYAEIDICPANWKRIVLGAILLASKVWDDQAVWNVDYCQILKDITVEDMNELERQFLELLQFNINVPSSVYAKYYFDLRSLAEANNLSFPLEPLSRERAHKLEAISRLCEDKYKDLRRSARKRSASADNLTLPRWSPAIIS",
  "experiment": "Competitive irreversible inhibition of CDK16/cyclin Y (unknown origin) in presence of Km ATP",
  "note": "pIC50: −log10 of the molar value.",
  "data": [
    {"smiles": "CN(C)C/C=C/C(=O)Nc1cccc(S(=O)(=O)N2CCC(NC(=O)c3n[nH]cc3NC(=O)c3c(Cl)cc(Cl)cc3Cl)CC2)c1", "values": [
      {"measurement": "pIC50", "value": 8.00}
    ]}
  ]
}
